What all share (type): biochemical
Test [1] addresses T1, AChE from human erythrocytes (HsAChE) (Homo sapiens, UniProt P22303).
T1 construct: from tissue; host or cells: human erythrocyte ghosts from blood of healthy donors
Put plainly: Ellman cholinesterase assay, human erythrocyte ghost AChE. As to the method:
(§1) The compounds selected as inhibitors of AChE activity were obtained commercially from MolPort (http://www.molport.com/buy-chemicals/index). They were dissolved in dimethyl sulfoxide (DMSO), at a final concentration of 0.1%.
(§2) The cholinesterase activities were measured based on Ellman et al.'s method. The increase of absorbance was monitored at 412 nm in a reaction mixture containing 10 mM potassium phosphate buffer, pH 7.4, and 1 mM DTNB [5,5′-dithiobis-(2-nitrobenzoic) acid] (from Sigma) in the presence of one of the following enzymes: purified AChE from Electrophorus electricus (EeAChE)—0.05 U/ml, AChE from human erythrocytes (HsAChE), AChE from Danio rerio (DrAChE)—0.5 μg, and purified BChE from Equus ferus (EfBChE)—0.05 U/mL. The compounds (or only 0.1% DMSO for the control group) were preincubated with the enzyme during 10 minutes at room temperature, and the reaction was started with the addition of acetylthiocholine or butyrylthiocholine (0.8 mM).
Haemoglobin-free erythrocyte ghosts were prepared according to the method previously described. Blood of nonfasted healthy voluntary donors was collected. Heparinized human blood was centrifuged at 3000 g for 10 min. The packed erythrocytes were diluted in 20 volumes (w/v) of hypotonic sodium/potassium phosphate buffer (6.7 mM, pH 7.4) to facilitate the hemolysis, followed by centrifugation at 30.000 g for 30 min at 4°C. The supernatant was removed and the pellet resuspended in hypotonic phosphate buffer. After two additional washing cycles, the pellet was resuspended in sodium/potassium phosphate buffer (0.1 M, pH 7.4) and then centrifuged again at 30.000 g for 30 min at 4°C. The supernatant was gently removed and the pellet was stored. Aliquots of the erythrocyte ghosts were stored at −20°C until usage within one week. The sample was diluted 10 times for AChE activity measurement. Fifty μL of the stored ghost preparation, in a final volume of 200 μL, was used for the assay. Hemoglobin content from ghost membranes was measured at 540 nm as the cyano-met-Hb form, but no hemoglobin was detected.
(§3) The IC50 values were determined by nonlinear regression (log concentration-inhibition curves). Data were analyzed by one-way analysis of variance (ANOVA) followed by Student-Newman-Keuls test. Statistical significance was set at P < 0.05. The statistics have been performed using GraphPad Prism 5 (version 5.01, GraphPad Software, Inc., USA).

For test [2], the target named is T2, AChE from Danio rerio (DrAChE) (Danio rerio, UniProt Q9DDE3).
T2 construct: zebrafish brains were homogenized on ice in 60 volumes (v/w) of Tris-citrate buffer; from tissue; host or cells: zebrafish brain homogenate
Put plainly: Ellman cholinesterase assay, zebrafish brain homogenate AChE. As to the method: as §1, §2
The DrAChE assay was performed as previously described by Rosemberg et al. (2010). Briefly, zebrafish brains were homogenized on ice in 60 volumes (v/w) of Tris-citrate buffer (50 mM Tris, 2 mM EDTA, 2 mM EGTA, and pH 7.4, with citric acid) using a Potter-Elvehjem-type glass homogenizer. Samples (0.5 μg protein) were preincubated for 10 min at 25°C and the enzyme activity was further assessed in the absence and the presence of the selected compounds.
as §3

In test [3] the target is BChE from Equus ferus (EfBChE) (Equus caballus, UniProt P81908). Put plainly: Ellman cholinesterase assay, purified BChE from Equus ferus. As to the method:
as §1, §2, §3

Test [4] has as its target AChE from Electrophorus electricus (EeAChE) (Electrophorus electricus, UniProt O42275). Put plainly: Ellman cholinesterase assay, purified AChE from Electrophorus electricus. As to the method: as §1, §2, §3
The mark [5] stands for this setting: human erythrocyte ghosts, 10 min preincubation, read-out: IC50 HsAChE.
Where [6] appears, read: zebrafish brain homogenate 0.5 μg protein, 10 min preincubation, read-out: IC50 DrAChE.
The mark [7] stands for this setting: purified BChE 0.05 U/mL, 10 min preincubation, butyrylthiocholine 0.8 mM, read-out: IC50 EcBChE.
The mark [8] stands for this setting: purified EeAChE 0.05 U/ml, 10 min preincubation, acetylthiocholine 0.8 mM, read-out: IC50 EeAChE.

Molecules are shown by their SMILES. Read-outs that look alike come from different tables or passages of the source.

T1 sequence (P22303 other isoform, or with tags, fused parts or gaps): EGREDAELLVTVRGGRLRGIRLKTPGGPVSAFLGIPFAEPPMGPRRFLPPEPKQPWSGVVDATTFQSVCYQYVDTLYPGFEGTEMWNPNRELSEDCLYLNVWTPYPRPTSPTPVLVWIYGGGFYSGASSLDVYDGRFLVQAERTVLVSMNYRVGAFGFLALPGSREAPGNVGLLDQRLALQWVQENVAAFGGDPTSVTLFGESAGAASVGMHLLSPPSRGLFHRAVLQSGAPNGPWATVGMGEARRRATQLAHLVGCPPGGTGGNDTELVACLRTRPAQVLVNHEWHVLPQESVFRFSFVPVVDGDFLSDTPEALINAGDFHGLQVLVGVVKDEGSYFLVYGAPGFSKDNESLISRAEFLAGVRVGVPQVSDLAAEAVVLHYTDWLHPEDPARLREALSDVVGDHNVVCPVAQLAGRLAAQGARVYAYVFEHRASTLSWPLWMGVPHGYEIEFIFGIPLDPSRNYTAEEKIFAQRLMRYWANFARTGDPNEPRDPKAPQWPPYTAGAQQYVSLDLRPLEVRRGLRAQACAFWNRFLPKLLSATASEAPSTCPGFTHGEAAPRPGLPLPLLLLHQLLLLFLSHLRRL
T2 sequence (Q9DDE3 24-634): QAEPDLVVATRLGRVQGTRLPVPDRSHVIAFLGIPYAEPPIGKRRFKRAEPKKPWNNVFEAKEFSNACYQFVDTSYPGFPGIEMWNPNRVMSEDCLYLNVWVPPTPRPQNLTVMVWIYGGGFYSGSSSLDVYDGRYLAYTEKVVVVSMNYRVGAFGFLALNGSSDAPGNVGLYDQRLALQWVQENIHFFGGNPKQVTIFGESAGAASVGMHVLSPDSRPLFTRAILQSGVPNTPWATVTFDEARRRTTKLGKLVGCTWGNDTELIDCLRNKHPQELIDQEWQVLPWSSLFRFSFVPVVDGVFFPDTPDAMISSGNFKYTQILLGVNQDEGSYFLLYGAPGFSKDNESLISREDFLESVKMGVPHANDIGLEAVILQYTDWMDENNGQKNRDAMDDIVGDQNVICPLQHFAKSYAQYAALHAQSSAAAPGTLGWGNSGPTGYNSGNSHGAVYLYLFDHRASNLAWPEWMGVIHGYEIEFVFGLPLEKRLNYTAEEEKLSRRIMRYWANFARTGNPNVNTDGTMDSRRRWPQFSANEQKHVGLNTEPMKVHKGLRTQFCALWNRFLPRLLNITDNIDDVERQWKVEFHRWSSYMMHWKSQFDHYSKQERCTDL
AChE from Electrophorus electricus (EeAChE), sequence (O42275 24-633): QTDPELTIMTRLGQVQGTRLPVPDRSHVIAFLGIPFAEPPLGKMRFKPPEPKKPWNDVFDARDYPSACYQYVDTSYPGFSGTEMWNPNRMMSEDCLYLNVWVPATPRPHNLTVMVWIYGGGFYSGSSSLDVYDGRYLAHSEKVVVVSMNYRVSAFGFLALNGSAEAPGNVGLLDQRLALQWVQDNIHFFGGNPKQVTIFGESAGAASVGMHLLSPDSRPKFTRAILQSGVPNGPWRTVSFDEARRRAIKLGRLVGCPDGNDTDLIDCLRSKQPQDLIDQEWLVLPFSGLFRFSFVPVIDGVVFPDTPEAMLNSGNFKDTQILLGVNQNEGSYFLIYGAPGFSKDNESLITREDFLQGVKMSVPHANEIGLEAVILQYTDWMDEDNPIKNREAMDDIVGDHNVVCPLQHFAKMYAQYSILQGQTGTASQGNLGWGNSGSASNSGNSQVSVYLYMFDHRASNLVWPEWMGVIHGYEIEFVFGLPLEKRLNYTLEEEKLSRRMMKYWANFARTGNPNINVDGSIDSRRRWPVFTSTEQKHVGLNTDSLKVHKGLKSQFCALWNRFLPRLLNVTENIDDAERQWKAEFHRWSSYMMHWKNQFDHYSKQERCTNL
BChE from Equus ferus (EfBChE), sequence (P81908 whole entry): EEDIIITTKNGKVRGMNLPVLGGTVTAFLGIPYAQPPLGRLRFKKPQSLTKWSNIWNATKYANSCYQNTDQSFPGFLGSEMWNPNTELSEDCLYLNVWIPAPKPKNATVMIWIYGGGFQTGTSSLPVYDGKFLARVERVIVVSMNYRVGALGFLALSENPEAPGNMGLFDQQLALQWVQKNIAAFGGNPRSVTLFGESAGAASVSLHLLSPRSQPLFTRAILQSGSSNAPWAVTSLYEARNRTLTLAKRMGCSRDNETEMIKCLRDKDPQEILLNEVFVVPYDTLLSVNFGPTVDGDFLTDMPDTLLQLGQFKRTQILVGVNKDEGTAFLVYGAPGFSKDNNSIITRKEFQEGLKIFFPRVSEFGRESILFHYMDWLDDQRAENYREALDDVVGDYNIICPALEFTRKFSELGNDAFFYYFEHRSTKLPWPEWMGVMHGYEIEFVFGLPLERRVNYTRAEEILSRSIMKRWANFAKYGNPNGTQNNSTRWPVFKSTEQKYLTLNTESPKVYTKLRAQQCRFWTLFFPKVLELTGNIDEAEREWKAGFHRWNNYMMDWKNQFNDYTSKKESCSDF

As for `O=c1ccc2ccc(OCC[N+]34CCC(CC3)C(C(O)(c3ccccc3)c3ccccc3)C4)cc2o1` (stereo not shown) [A], the IC50 in test [1] was determined as 13.2 ± 1.38 µM; in test [2] it was 26.2 ± 3.98 µM; in test [3], 22.2 ± 1.06 µM; in test [4] it was 36.3 ± 3.14 µM.

For the molecule `COc1c2c(cc3c1[C@H](CC(=O)c1cc4c(cc1C)C(C)(C)[C@@H](C)C4(C)C)[N+](C)(C)CC3)OCO2` [B], the IC50 in test [1] (setting [5]) worked out at 37.5 ± 1.97 µM; in test [2] (setting [6]), 21.2 ± 1.44 µM; in test [3] (setting [7]), 4.02 ± 0.78 µM; in test [4] (setting [8]) it was 578 ± 84.3 µM.

Turning to `CCCC[N+]1(CC#CC2(O)c3ccccc3-c3ccccc32)CCC(c2ccccc2)C1` (stereo not shown) [C], the IC50 in test [1] (setting [5]) came out at 92.1 ± 39.7 µM; in test [2] (setting [6]), 239 ± 2.95 µM; in test [3] (setting [7]), 0.75 ± 0.18 µM; in test [4] (setting [8]), 761 ± 128 µM.

For the molecule `C[N+]1(Cc2ccc(-c3nnc(-c4ccc([N+](=O)[O-])cc4)o3)cc2)CCc2[nH]c3ccccc3c2C1` (stereo not shown) [Compound D], the IC50 in test [1] (setting [5]) was determined as 1.69 ± 0.46 µM; in test [2] (setting [6]), 2.31 ± 0.29 µM; in test [3] (setting [7]), 5.64 ± 2.47 µM; in test [4] (setting [8]), 5.39 ± 0.55 µM.

Take `c1ccc(-c2c3c(cc4ccccc24)C[N+]2(CCCC2)C3)cc1` [Compound E]: the IC50 in test [1] (setting [5]) came to 512 ± 301 µM; in test [2] (setting [6]) it was 26.4 ± 5.3 µM; in test [3] (setting [7]), 12.7 ± 7.66 µM; in test [4] (setting [8]), 342 ± 54.6 µM.

On to `C[N+]1(C)CCC2(CC1)Oc1ccccc1C1CC(c3ccc(-c4ccccc4)cc3)=NN12` (stereo not shown) [F], for which the IC50 worked out at 151 ± 61.7 µM in test [1], 192 ± 29.8 µM in test [2], 32.9 ± 3.88 µM in test [3] and 84.2 ± 6 µM in test [4].

As to `C[N+]1(C)CCC2(CC1)Oc1ccccc1C1CC(c3ccc4ccccc4c3)=NN12` (stereo not shown) [G], the IC50 in test [1] was determined as 70 ± 7.96 µM; in test [2], 49.8 ± 15.3 µM; in test [3], 9.51 ± 6.94 µM; in test [4], 344 ± 50.7 µM.

For the origin of these results see article PMC4317581, “Virtual Screening of Acetylcholinesterase Inhibitors Using the Lipinski's Rule of Five and ZINC Databank” (BioMed Research International, 2015).
